Series [1] can be described thus: Intratumoral concentration of STING agonist in B16-F10 melanoma tumors. The format is in vivo, C57BL/6 mice. The following applies: 0.3 μg of CL656 intratumoral dose; after about 360 minutes. As for the experimental part: The intratumoral concentration of STING agonist in Buffer B over time was investigated.
Briefly, B16-F10 melanoma cells were subcutaneously transplanted into C57BL/6 mice. When dermal tumors were visible, each animal received an intratumoral dose of either free STING agonist (0.3 μg of CL656) or exosome-encapsulated STING agonist (0.3 μg of CL656). Intratumoral concentration of free STING agonist and exosome-encapsulated STING agonist was measured at 5, 30, 120, 360, 1440, and 2880 minutes after injection. […] Further shown in FIG. 3D, the concentration of exosome-encapsulated STING agonist fell slowly to about 100 nM at 1440 minutes. Thereafter, the concentration of exosome-encapsulated STING agonist was steady at about 100 nM until the last measurement was taken at 2880 minutes.

Another series has as its system IFNβ mRNA. The series is described as follows: IFNβ mRNA expression in liver after intravenous administration. The format is in vivo, C57BL/6 mice. The following applies: 20 μg intravenously; 4 hours. As for the experimental part:
The effect of administration of exosomes containing STING agonist CL656 on gene expression in C57BL/6 liver was investigated.
After thawing, exosomes in buffer B composition containing STING agonist CL656 was stored at 4° C. and 22° C. for 24 h or 72 h as described in Example 5. PBS, CL656 (20 μg), exosomes, or exosomes in buffer B containing STING agonist CL656 that incubated as described above (600 ng of CL656 per mouse) were administered into C57BL/6 mice intravenously. As a control, exosomes in buffer B composition containing STING agonist CL656 that were stored at −80° C. (6 ng, 60 ng, and 600 ng per mouse) were administered (considered as 0 h). After 4 hours, mice were euthanized and liver was collected. Total RNA was isolated from liver by using RNeasy Lipid Mini Kit (Qiagen) and expression level of IFNβ mRNA was determined by RT-qPCR. Relative expression was normalized against housekeeping gene RPS13. FIG. 3C provides the results from the liver study.

In the case of `Nc1ncnc2c1ncn2[C@@H]1O[C@@H]2COP(=O)(S)O[C@H]3[C@@H](F)[C@H](n4cnc5c(=O)[nH]cnc54)O[C@@H]3COP(O)(=S)O[C@H]2[C@H]1F` (some centres unmarked) [CL656], the intratumoral concentration entry in series [1] is “not detectable”. Also, the “IFNβ mRNA in liver (RT-qPCR, normalized against RPS13)” value in the series on IFNβ mRNA is recorded as “low level”.

(Values after patent US20240099973A1, “EXTRACELLULAR VESICLE COMPOSITIONS” (LONZA SALES AG, priority 2019, published 2024).)
